# Test results: PubChem BioAssay (NCI)
#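 Test compounds were applied to cells in 96-well plates for 48 hours at 5 doses. Definition used: TGI = concentration required for complete inhibition of growth.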
# How the values were obtained:
# Test in all cases: NCI tumour cell line growth inhibition, 48 h
# CAKI-1 renal = system: CAKI-1 renal
# SNB-75 CNS = system: SNB-75 CNS
# HL-60(TB) leukemia = system: HL-60(TB) leukemia
# HOP-92 NSCLC = system: HOP-92 NSCLC
# U251 CNS = system: U251 CNS
# RPMI-8226 leukemia = system: RPMI-8226 leukemia
# SF-268 CNS = system: SF-268 CNS
# CCRF-CEM leukemia = system: CCRF-CEM leukemia
# MDA-MB-435 = system: MDA-MB-435
# HT29 colon = system: HT29 colon
# BT-549 breast = system: BT-549 breast
# HS 578T breast = system: HS 578T breast
# UACC-257 melanoma = system: UACC-257 melanoma
# TK-10 renal = system: TK-10 renal
# SNB-19 CNS = system: SNB-19 CNS
# HOP-62 NSCLC = system: HOP-62 NSCLC
# ACHN renal = system: ACHN renal
# NCI-H226 lung = system: NCI-H226 lung
# SK-MEL-2 melanoma = system: SK-MEL-2 melanoma
# DU-145 prostate = system: DU-145 prostate
# EKVX NSCLC = system: EKVX NSCLC
# K-562 leukemia = system: K-562 leukemia
# MALME-3M melanoma = system: MALME-3M melanoma
# T-47D breast = system: T-47D breast
# SK-MEL-28 melanoma = system: SK-MEL-28 melanoma
# LOX IMVI melanoma = system: LOX IMVI melanoma
# 786-0 renal = system: 786-0 renal
# OVCAR-4 ovarian = system: OVCAR-4 ovarian
# COLO 205 colon = system: COLO 205 colon
# MDA-MB-231 breast = system: MDA-MB-231 breast
# RXF 393 renal = system: RXF 393 renal
# OVCAR-3 ovarian = system: OVCAR-3 ovarian
# SW-620 colon = system: SW-620 colon
# MOLT-4 leukemia = system: MOLT-4 leukemia
# SN12C renal = system: SN12C renal
# NCI-H522 lung = system: NCI-H522 lung
# SR leukemia = system: SR leukemia
# SK-OV-3 ovarian = system: SK-OV-3 ovarian
# NCI-H23 lung = system: NCI-H23 lung
# MDA-N = system: MDA-N
# M14 melanoma = system: M14 melanoma
# UO-31 renal = system: UO-31 renal
# IGROV1 ovarian = system: IGROV1 ovarian
# HCT-15 colon = system: HCT-15 colon
# A549 NSCLC = system: A549 NSCLC
# OVCAR-8 ovarian = system: OVCAR-8 ovarian
# KM12 colon = system: KM12 colon
# OVCAR-5 ovarian = system: OVCAR-5 ovarian
# NCI/ADR-RES ovarian = system: NCI/ADR-RES ovarian
# HCT-116 colon = system: HCT-116 colon
# PC-3 prostate = system: PC-3 prostate
# SF-295 CNS = system: SF-295 CNS
# UACC-62 melanoma = system: UACC-62 melanoma
# SK-MEL-5 melanoma = system: SK-MEL-5 melanoma
# A498 renal = system: A498 renal
# SF-539 CNS = system: SF-539 CNS
# HCC-2998 colon = system: HCC-2998 colon
# MCF7 breast = system: MCF7 breast
# NCI-H460 lung = system: NCI-H460 lung
smiles,measurement,setting,value
N=C(c1ccc(-c2cn3cc(C(=N)N4CCCC4)ccc3n2)cc1)N1CCCC1,TGI,CAKI-1 renal,> 100 µM
same,TGI,SNB-75 CNS,> 100 µM
same,TGI,HL-60(TB) leukemia,158 nM
same,TGI,HOP-92 NSCLC,> 100 µM
same,TGI,U251 CNS,> 100 µM
same,TGI,RPMI-8226 leukemia,> 100 µM
same,TGI,SF-268 CNS,> 100 µM
same,TGI,CCRF-CEM leukemia,83.1 µM
same,TGI,MDA-MB-435,> 100 µM
same,TGI,HT29 colon,> 100 µM
same,TGI,BT-549 breast,> 100 µM
same,TGI,HS 578T breast,> 100 µM
same,TGI,UACC-257 melanoma,> 100 µM
same,TGI,TK-10 renal,> 100 µM
same,TGI,SNB-19 CNS,> 100 µM
same,TGI,HOP-62 NSCLC,> 100 µM
same,TGI,ACHN renal,> 100 µM
same,TGI,NCI-H226 lung,> 100 µM
same,TGI,SK-MEL-2 melanoma,> 100 µM
same,TGI,DU-145 prostate,> 100 µM
same,TGI,EKVX NSCLC,> 100 µM
same,TGI,K-562 leukemia,> 100 µM
same,TGI,MALME-3M melanoma,> 100 µM
same,TGI,T-47D breast,> 100 µM
same,TGI,SK-MEL-28 melanoma,> 100 µM
same,TGI,LOX IMVI melanoma,> 100 µM
same,TGI,786-0 renal,> 100 µM
same,TGI,OVCAR-4 ovarian,> 100 µM
same,TGI,COLO 205 colon,> 100 µM
same,TGI,MDA-MB-231 breast,> 100 µM
same,TGI,RXF 393 renal,> 100 µM
same,TGI,OVCAR-3 ovarian,> 100 µM
same,TGI,SW-620 colon,> 100 µM
same,TGI,MOLT-4 leukemia,> 100 µM
same,TGI,SN12C renal,> 100 µM
same,TGI,NCI-H522 lung,> 100 µM
same,TGI,SR leukemia,> 100 µM
same,TGI,SK-OV-3 ovarian,> 100 µM
same,TGI,NCI-H23 lung,> 100 µM
same,TGI,MDA-N,> 100 µM
same,TGI,M14 melanoma,> 100 µM
same,TGI,UO-31 renal,> 100 µM
same,TGI,IGROV1 ovarian,> 100 µM
same,TGI,HCT-15 colon,> 100 µM
same,TGI,A549 NSCLC,> 100 µM
same,TGI,OVCAR-8 ovarian,> 100 µM
same,TGI,KM12 colon,> 100 µM
same,TGI,OVCAR-5 ovarian,> 100 µM
same,TGI,NCI/ADR-RES ovarian,> 100 µM
same,TGI,HCT-116 colon,> 100 µM
same,TGI,PC-3 prostate,> 100 µM
same,TGI,SF-295 CNS,> 100 µM
same,TGI,UACC-62 melanoma,> 100 µM
same,TGI,SK-MEL-5 melanoma,> 100 µM
O=C(/C=C/c1ccc2c(c1)OCO2)NCc1ccco1,TGI,CAKI-1 renal,> 100 µM
same,TGI,SNB-75 CNS,> 100 µM
same,TGI,A498 renal,> 100 µM
same,TGI,HOP-92 NSCLC,> 100 µM
same,TGI,U251 CNS,> 100 µM
same,TGI,CCRF-CEM leukemia,> 100 µM
same,TGI,MDA-MB-435,> 100 µM
same,TGI,HT29 colon,> 100 µM
same,TGI,BT-549 breast,> 100 µM
same,TGI,HS 578T breast,> 100 µM
same,TGI,UACC-257 melanoma,> 100 µM
same,TGI,TK-10 renal,> 100 µM
same,TGI,SNB-19 CNS,> 100 µM
same,TGI,HOP-62 NSCLC,> 100 µM
same,TGI,ACHN renal,> 100 µM
same,TGI,NCI-H226 lung,> 100 µM
same,TGI,SK-MEL-2 melanoma,> 100 µM
same,TGI,DU-145 prostate,> 100 µM
same,TGI,EKVX NSCLC,> 100 µM
same,TGI,K-562 leukemia,> 100 µM
same,TGI,MALME-3M melanoma,> 100 µM
same,TGI,T-47D breast,80.9 µM
same,TGI,SK-MEL-28 melanoma,> 100 µM
same,TGI,LOX IMVI melanoma,> 100 µM
same,TGI,786-0 renal,> 100 µM
same,TGI,SF-539 CNS,> 100 µM
same,TGI,OVCAR-4 ovarian,> 100 µM
same,TGI,COLO 205 colon,> 100 µM
same,TGI,MDA-MB-231 breast,> 100 µM
same,TGI,HCC-2998 colon,> 100 µM
same,TGI,OVCAR-3 ovarian,> 100 µM
same,TGI,SW-620 colon,> 100 µM
same,TGI,MCF7 breast,> 100 µM
same,TGI,MOLT-4 leukemia,> 100 µM
same,TGI,SN12C renal,> 100 µM
same,TGI,SR leukemia,> 100 µM
same,TGI,SK-OV-3 ovarian,> 100 µM
same,TGI,NCI-H23 lung,> 100 µM
same,TGI,MDA-N,> 100 µM
same,TGI,M14 melanoma,> 100 µM
same,TGI,UO-31 renal,> 100 µM
same,TGI,IGROV1 ovarian,> 100 µM
same,TGI,HCT-15 colon,> 100 µM
same,TGI,A549 NSCLC,> 100 µM
same,TGI,OVCAR-8 ovarian,> 100 µM
same,TGI,KM12 colon,> 100 µM
same,TGI,OVCAR-5 ovarian,> 100 µM
same,TGI,NCI-H460 lung,> 100 µM
same,TGI,NCI/ADR-RES ovarian,> 100 µM
same,TGI,HCT-116 colon,> 100 µM
same,TGI,PC-3 prostate,> 100 µM
same,TGI,SF-295 CNS,> 100 µM
same,TGI,UACC-62 melanoma,> 100 µM
same,TGI,SK-MEL-5 melanoma,> 100 µM
